In PMC12395297, “Bidirectional Modification of a Galbulimima Alkaloid Identifies Selective Opioid Ligands” (ACS Central Science, 2025):
“Also recorded” adds a separate entry of the source.

How the values were obtained:
KOR [1] = molecular target: T1, KOR (Homo sapiens, UniProt P41145); experiment: KOR affinity (pKi) of pyridyl GB18 analogs, Figure 1b; format: binding; details: footnote a
KOR [2] = molecular target: T1, KOR; experiment: Inhibition of forskolin-stimulated cAMP accumulation (KOR agonism, HTRF); format: cell-based
KOR [3] = molecular target: T1, KOR; experiment: 35S-GTPγS binding in CHO-KOR cells; format: biochemical; details: read-out: KOR Emax
320 GPCRs = experiment: GPCRome PRESTO-Tango screen across 320 GPCRs (PDSP); format: cell-based
KOR [4] = molecular target: T1, KOR; parameters: method as in earlier paper of the authors (Woo, Shenvi, Nature 2022); details: antagonism; TANGO β-arrestin signaling, n = 3; ref earlier paper of the authors (Woo, Shenvi, Nature 2022); cited from earlier work
MOR = MOR (Homo sapiens, UniProt P35372); parameters: method as in earlier paper of the authors (Woo, Shenvi, Nature 2022); details: antagonism; TANGO β-arrestin signaling, n = 3; ref earlier paper of the authors (Woo, Shenvi, Nature 2022); cited from earlier work
Sequence of MOR (P35372 whole entry): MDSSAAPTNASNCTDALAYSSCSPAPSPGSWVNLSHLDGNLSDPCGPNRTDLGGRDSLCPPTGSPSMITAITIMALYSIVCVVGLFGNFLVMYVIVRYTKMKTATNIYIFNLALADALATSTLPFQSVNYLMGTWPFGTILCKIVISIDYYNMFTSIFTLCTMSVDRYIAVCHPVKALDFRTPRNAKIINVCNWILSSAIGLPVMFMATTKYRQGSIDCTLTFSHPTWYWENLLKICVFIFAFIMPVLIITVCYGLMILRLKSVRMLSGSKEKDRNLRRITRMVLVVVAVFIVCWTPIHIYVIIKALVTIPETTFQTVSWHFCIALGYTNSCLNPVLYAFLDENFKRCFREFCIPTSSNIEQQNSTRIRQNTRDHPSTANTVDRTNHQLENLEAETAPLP

T1 sequence (P41145 whole entry): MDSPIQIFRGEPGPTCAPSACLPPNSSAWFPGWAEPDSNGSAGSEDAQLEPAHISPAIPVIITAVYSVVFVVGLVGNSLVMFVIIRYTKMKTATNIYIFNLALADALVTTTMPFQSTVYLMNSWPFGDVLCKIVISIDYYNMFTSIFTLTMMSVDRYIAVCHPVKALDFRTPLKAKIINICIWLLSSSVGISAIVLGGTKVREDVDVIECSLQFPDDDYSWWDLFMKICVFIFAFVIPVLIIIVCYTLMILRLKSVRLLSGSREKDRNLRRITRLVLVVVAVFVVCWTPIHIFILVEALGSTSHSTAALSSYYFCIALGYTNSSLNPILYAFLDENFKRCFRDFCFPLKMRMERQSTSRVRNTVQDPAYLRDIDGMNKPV

Row | Compound | Ki (KOR [1]) | EC50 (KOR [2]; inhibition of forskolin-stimulated cAMP accumulation, Figure 4 and text) | Emax (KOR [2]; read-out: KOR Emax) | Emax (KOR [3]) | GPCR selectivity in PRESTO-Tango agonist screen (320 GPCRs) | KOR pIC50 (KOR [4]) | MOR pIC50 (MOR)
1 | COC(=O)C1=CC23CCCCC2C2CC(c4cccc(C)n4)C(C)(O3)C12 (stereo not shown) [compound 2] | 29.5 nM | 476 nM | 56% | 34% | highly selective partial agonist; also recorded: agonized KOR with high selectivity among 320 GPCRs | – | –
2 | GB18 | – | – | – | – | – | 8 | 8
